Assay results: patent publication US12435061B2 (priority 2020, dated 2025)
≈ marks a conversion by molar mass, not a printed value. Where “and” joins values, the source holds several entries; their conditions need not be identical. Equal entries are not always repeated. Where two headings read alike, the source gives them in different places.

Columns and labels:
hTRPV3 [1] = molecular target: T1, hTRPV3 (Homo sapiens (Human), UniProt Q8NET8); experiment: Whole-cell patch clamp, hTRPV3 Phase 1 / Phase 2 currents; format: cell-based
T1 sequence (Q8NET8 whole entry): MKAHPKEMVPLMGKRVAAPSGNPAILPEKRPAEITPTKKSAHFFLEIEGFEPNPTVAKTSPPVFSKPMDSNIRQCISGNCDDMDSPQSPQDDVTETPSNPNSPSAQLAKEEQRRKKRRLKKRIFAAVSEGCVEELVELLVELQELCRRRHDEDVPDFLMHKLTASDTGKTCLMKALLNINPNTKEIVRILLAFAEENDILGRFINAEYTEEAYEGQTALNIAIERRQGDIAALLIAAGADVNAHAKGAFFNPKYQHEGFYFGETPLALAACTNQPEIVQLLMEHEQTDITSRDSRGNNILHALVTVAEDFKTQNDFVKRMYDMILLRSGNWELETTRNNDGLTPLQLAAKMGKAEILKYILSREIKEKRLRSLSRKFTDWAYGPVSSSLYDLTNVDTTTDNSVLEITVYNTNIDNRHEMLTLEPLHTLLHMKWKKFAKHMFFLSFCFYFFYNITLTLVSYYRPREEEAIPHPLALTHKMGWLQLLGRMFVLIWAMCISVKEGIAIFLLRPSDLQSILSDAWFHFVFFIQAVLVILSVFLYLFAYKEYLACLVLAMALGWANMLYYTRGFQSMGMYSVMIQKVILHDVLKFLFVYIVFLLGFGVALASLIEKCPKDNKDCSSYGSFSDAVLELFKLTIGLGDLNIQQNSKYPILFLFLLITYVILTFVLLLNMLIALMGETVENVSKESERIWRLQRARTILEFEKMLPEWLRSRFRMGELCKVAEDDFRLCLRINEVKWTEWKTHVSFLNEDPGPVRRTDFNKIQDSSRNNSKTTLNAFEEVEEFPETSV
In short: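 Currents are activated by 20 μM 2-APB or by perfusate at 28 °C or warmer, in Ringer's solution, and quantified at ±80 mV.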

[2] = Aqueous solubility assay in Normal Ringer Solution; details: Normal Ringer Solution; for solubility at 40 min: saline or isotonic, kinetic from dmso stock
Procedure: Following vortex and incubation for a sufficient time (e.g. 40 minutes at room temperature), solutions were filtered, quenched with acetonitrile, and analyzed by Liquid Chromotography. Solubility Limits were determined by comparison to a standard curve.

[3] = Metabolic Stability assay, rat liver microsomes; format: in vitro ADME; details: for half-life at 1 μM: read-out: LM T1/2 (min) (rat)
In short: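 Reactions in human or rat liver microsomes at 37 °C were started with an NADPH-regenerating system, using 1 μM compound initially. Samples were taken at 0, 7, 15, 30 and 60 min, quenched in ice-cold acetonitrile/MeOH/H2O, and quantified by HPLC/MS/MS.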

hTRPV3 [4] = molecular target: T1, hTRPV3; experiment: hTRPV3 HAMA IC50 assay (Hamamatsu FDSS6000 calcium flux, TRex-293 cells)
Procedure: IC50s were calculated using CBIS from ChemInnovation (San Diego).

[5] = Phase 1 current, inward, whole-cell patch clamp, read-out: hTRPV3 Patch P1 Inwd
[6] = Phase 1 current, read-out: hTRPV3 (nM) (Phase 1)
[7] = Phase 2 current, inward, whole-cell patch clamp, read-out: hTRPV3 Patch P2 Inwd
[8] = Phase 2 current, read-out: hTRPV3 (nM) (Phase 2)
[9] = hTRPV3 HAMA IC50 (nM) (5 min), 5 min
[10] = read-out: hTRPV3 (nM) (Phase 1)
[11] = hTRPV3 HAMA IC50 (nM) (30 min), 30 min

SMILES | IC50 (hTRPV3 [1]; [5]) | IC50 (hTRPV3 [1]; [6]) | IC50 (hTRPV3 [1]; [7]) | IC50 (hTRPV3 [1]; [8]) | solubility at 40 min [2] | half-life at 1 μM [3] | hTRPV3 HAMA IC50 (nM) (5 min) (hTRPV3 [4]; 5 min) | Solubility Ringer (nM) ([2]; room temperature) | also measured
NC(=O)c1cc(Cl)ccc1N1CC[C@H](Oc2ccc(C(F)(F)F)cn2)C1 [Compound 1-31, (S)-5-chloro-2-(3-(5-(trifluoromethyl)pyridin-2-yloxy)pyrrolidin-1-yl)benzamide] | 100 to 1000 nM | ~883 nM | 100 to 1000 nM | 546 nM | > 16.8 µM | 34.3 min | no fit (5 min) |  | 
NC(=O)c1cc(-c2ccccc2)ccc1N1CC[C@H](Oc2ccc(C(F)(F)F)cn2)C1 [Compound 1-32, (S)-4-(3-(5-(trifluoromethyl)pyridin-2-yloxy)pyrrolidin-1-yl)biphenyl-3-carboxamide] | 100 to 1000 nM | 285 nM | 100 to 1000 nM | 273 nM |  | 44.3 min | no fit (5 min) | BLQ | 
OCc1cc(-c2ccccc2)ccc1N1CC[C@H](Oc2ccc(C(F)(F)F)cn2)C1 [Compound 1-115, (S)-(4-(3-(5-(trifluoromethyl)pyridin-2-yloxy)pyrrolidin-1-yl)biphenyl-3-yl)methanol] | 10 to 100 nM | 74.2 nM | 10 to 100 nM | 59 nM | 0.37 µM (≈ 0.153 µg/mL) | 45.8 min |  |  | IC50 (hTRPV3 [4]; [9]): > 20000 nM and 5860 nM
CC(O)c1cc(-c2ccccc2)ccc1N1CC[C@H](Oc2ccc(C(F)(F)F)cn2)C1 (stereo partly drawn) [Compound 1-121, 1-(4-((S)-3-(5-(trifluoromethyl)pyridin-2-yloxy)pyrrolidin-1-yl)biphenyl-3-yl)ethanol] | 10 to 100 nM | 102 nM |  |  |  | 33.3 min | no fit (5 min) | BLQ | 
NC(=O)c1cc(Oc2ccccc2)ccc1N1CC[C@H](Oc2ncccc2Cl)C1 [Compound 1-129] |  |  |  |  |  | 6.42 min |  |  | IC50 (hTRPV3 [1]; hTRPV3 Patch P1 Inwd (nM)): 100 to 1000 nM; hTRPV3 HAMA IC50 (nM) (5 min) (hTRPV3 [4]): no fit (5 min)
NC(=O)c1cc(C(=O)c2ccccc2)ccc1N1CC[C@H](Oc2ccc(C(F)(F)F)cn2)C1 [Compound 1-130, (S)-5-benzoyl-2-(3-(5-(trifluoromethyl)pyridin-2-yloxy)pyrrolidin-1-yl)benzamide] | > 1000 nM | 1540 nM |  |  | ~12.2 µM (≈ 5.56 µg/mL) | 67 min | no fit (5 min) |  | 
Cc1cccnc1O[C@H]1CCN(c2ccc(-c3ccccc3)cc2CO)C1 [Compound 1-131, (S)-(4-(3-(3-methylpyridin-2-yloxy)pyrrolidin-1-yl)biphenyl-3-yl)methanol] | 100 to 1000 nM | 148 nM |  |  | ~0.62 µM (≈ 0.223 µg/mL) | 23.5 min | no fit (5 min) |  | 
OCCOc1cc(-c2ccccc2)ccc1N1CC[C@H](Oc2ccc(C(F)(F)F)cn2)C1 [Compound 1-135, (S)-2-(4-(3-(5-(trifluoromethyl)pyridin-2-yloxy)pyrrolidin-1-yl)biphenyl-3-yloxy)ethanol] | 100 to 1000 nM | 765 nM |  |  | 0.19 µM (≈ 0.0844 µg/mL) | 69.7 min | no fit (5 min) |  | 
NC(=O)c1cc(C(O)c2ccccc2)ccc1N1CC[C@H](Oc2ncccc2Cl)C1 (stereo partly drawn) [Compound 1-137, 2-((S)-3-(3-chloropyridin-2-yloxy)pyrrolidin-1-yl)-5-(hydroxy(phenyl)methyl)benzamide] | > 1000 nM | 2980 nM |  |  | > 17.7 µM | 8.72 min | no fit (5 min) |  | 
OCCCc1cc(-c2ccccc2)ccc1N1CC[C@H](Oc2ccc(C(F)(F)F)cn2)C1 [Compound 1-138, (S)-3-(4-(3-(5-(trifluoromethyl)pyridin-2-yloxy)pyrrolidin-1-yl)biphenyl-3-yl)propan-1-ol] | 100 to 1000 nM | 275 nM |  |  |  | 62.4 min | no fit (5 min) | BLQ | 
OCc1nc(Oc2ccccc2)ccc1N1CC[C@H](Oc2ccc(C(F)(F)F)cn2)C1 [Compound 1-139, (S)-(6-phenoxy-3-(3-(5-(trifluoromethyl)pyridin-2-yloxy)pyrrolidin-1-yl)pyridin-2-yl)methanol] | 10 to 100 nM | 23.6 nM |  |  |  |  |  |  | Solubility Ringer ([2]; room temperature): ~0.3 µM (≈ 0.129 µg/mL); LM T1/2 (min) (rat) ([3]; 1 μM): 30.7 (rat) min; IC50 (hTRPV3 [4]; read-out: hTRPV3 HAMA IC50 (nM) (5 min), 5 min): 5750 nM
NC(=O)c1cc(Cc2ccccc2)ccc1N1CC[C@H](Oc2ccc(C(F)(F)F)cn2)C1 [Compound 1-140, (S)-5-benzyl-2-(3-(5-(trifluoromethyl)pyridin-2-yloxy)pyrrolidin-1-yl)benzamide] |  |  |  |  |  | 27.7 min | no fit (5 min) | BLQ | IC50 (hTRPV3 [1]; hTRPV3 Patch P1 Inwd (nM)): 100 to 1000 nM; IC50 (hTRPV3 [1]; [10]): 710 nM
NC(=O)c1cc(C(O)c2ccccc2)ccc1N1CC[C@H](Oc2ccc(C(F)(F)F)cn2)C1 (stereo partly drawn) [Compound 1-146, 5-(hydroxy(phenyl)methyl)-2-((S)-3-(5-(trifluoromethyl)pyridin-2-yloxy)pyrrolidin-1-yl)benzamide] | 100 to 1000 nM | 686 nM |  |  | > 13.3 µM | 45.8 min |  |  | IC50 (hTRPV3 [4]; [9]): 11800 nM
NC(=O)c1cc(C(=O)c2ccccc2)ccc1N1CC[C@@H](Oc2ccc(C(F)(F)F)cn2)C1 [Compound 1-154, (R)-5-benzoyl-2-(3-(5-(trifluoromethyl)pyridin-2-yloxy)pyrrolidin-1-yl)benzamide] | > 1000 nM | 3040 nM |  |  |  | 54.5 min | no fit (5 min) |  | 
CCOc1ccccc1-c1ccc(N2CC[C@H](Oc3ccc(C(F)(F)F)cn3)C2)c(CO)c1 [Compound 1-162, (S)-(2′-ethoxy-4-(3-(5-(trifluoromethyl)pyridin-2-yloxy)pyrrolidin-1-yl)biphenyl-3-yl)methanol] | 10 to 100 nM | 101 nM |  |  |  | 22.8 min | no fit (5 min) |  | 
OCc1cc(Oc2ccccc2)ccc1N1CC[C@H](Oc2ncccc2Cl)C1 [Compound 1-168, (S)-(2-(3-(3-chloropyridin-2-yloxy)pyrrolidin-1-yl)-5-phenoxyphenyl)methanol] | 10 to 100 nM | 61.2 nM | 10 to 100 nM | 90.5 nM | ~0.5 µM (≈ 0.198 µg/mL) | 26.7 min |  |  | IC50 (hTRPV3 [4]; [9]): > 20000 nM
Cc1ccccc1Oc1ccc(N2CC[C@H](Oc3ncccc3Cl)C2)c(CO)c1 [Compound 1-173, (S)-(2-(3-(3-chloropyridin-2-yloxy)pyrrolidin-1-yl)-5-(o-tolyloxy)phenyl)methanol] | 10 to 100 nM | ~29 nM | 10 to 100 nM | 34.7 nM |  | 27.9 min |  | BLQ | IC50 (hTRPV3 [4]; [9]): > 20000 nM and 12000 nM; IC50 (hTRPV3 [4]; [11]): 1900 nM
NC(=O)c1cc(Oc2ccccc2Cl)ccc1N1CC[C@H](Oc2ncccc2Cl)C1 [Compound 1-181, (S)-5-(2-chlorophenoxy)-2-(3-(3-chloropyridin-2-yloxy)pyrrolidin-1-yl)benzamide] | 100 to 1000 nM | 571 nM | 100 to 1000 nM | 834 nM |  | 8.96 min | no fit (5 min) |  | 
COc1ccccc1Oc1ccc(N2CC[C@H](Oc3ncccc3Cl)C2)c(CO)c1 [Compound 1-221, (S)-(2-(3-(3-chloropyridin-2-yloxy)pyrrolidin-1-yl)-5-(2-methoxyphenoxy)phenyl)methanol] |  |  |  |  | ~2.9 µM (≈ 1.24 µg/mL) | 12.9 min | no fit |  | IC50 (hTRPV3 [1]; hTRPV3 Patch P1 Inwd (nM)): 100 to 1000 nM; IC50 (hTRPV3 [1]; [10]): 159 nM; IC50 (hTRPV3 [4]; [11]): 19400 nM
CCc1ccccc1Oc1ccc(N2CC[C@H](Oc3ncccc3Cl)C2)c(CO)c1 [Compound 1-222, (S)-(2-(3-(3-chloropyridin-2-yloxy)pyrrolidin-1-yl)-5-(2-ethylphenoxy)phenyl)methanol] | < 10 nM | 3.91 nM |  |  |  | 18.7 min | no fit | BLQ | IC50 (hTRPV3 [4]; [11]): 1790 nM
OCc1cc(Oc2ccccc2Cl)ccc1N1CC[C@H](Oc2ncccc2Cl)C1 [Compound 1-223, (S)-(5-(2-chlorophenoxy)-2-(3-(3-chloropyridin-2-yloxy)pyrrolidin-1-yl)phenyl)methanol] | 10 to 100 nM | 39.3 nM | 10 to 100 nM | 13.3 nM |  | 17.2 min | no fit | BLQ | IC50 (hTRPV3 [4]; [11]): 14600 nM
CCc1ccccc1-c1ccc(CO)c(N2CC[C@H](Oc3ncccc3Cl)C2)c1 [Compound 1-229, (S)-(3-(3-(3-chloropyridin-2-yloxy)pyrrolidin-1-yl)-2′-ethylbiphenyl-4-yl)methanol] | 10 to 100 nM | 69.2 nM |  |  | 0.16 µM (≈ 0.0654 µg/mL) | 4.46 min | no fit (5 min) no fit (30 min) |  | hTRPV3 HAMA IC50 (nM) (30 min) (hTRPV3 [4]; 30 min): no fit (5 min) no fit (30 min)
